# Test results as given in patent publication US20250000783A1, “METHOD FOR HAIR CARE BY USING CASHEW TESTA EXTRACT” (TCI CO., LTD., priority 2023, published 2025).
# How the values were obtained:
# [1] = system: human hair follicle dermal papilla cells (HFDPC); assay: Antioxidant test for hair follicle cells (ROS, DCFH-DA, flow cytometry, H2O2 stimulation); assay type: cell-based; details: 0.1 mM compound + 0.5 mM H2O2, read-out: ROS inhibition rate relative to control group G02
# Method: 1. Cell strains: human hair follicle dermal papilla cells (HFDPC), which are purchased from PromoCell, with a cell number C-12071, and hereinafter referred to as HFDPC cells.
# 1. HFDPC cells were inoculated into a 6-well culture medium with 2 ml of cell culture medium in each well at the density of 1×10^5 cells, and cultured at 37° C. for 24 h. Therefore, the HFDPC cells were divided into three test groups which were blank group G01, control group G02 and experimental group, respectively.
# 2. After culture for 24 h, each group was changed as an experimental culture medium. Where, the experimental culture media in blank G01 and control group G02 were cell culture mediums without cashew testa extracts or compounds thereof. Subsequently, each group was treated at 34° C. for 1 h.
# 3. After treatment for 1 h, a DCFH-DA treatment reagent was added in each group so that the final concentration of each group was 5 μg/mL, and each group was treated at 37° C. for 15 min.
# 4. After treatment for 15 min, 100 mM of 5 μl/well H2O2 aqueous solution was added, and each group was treated at 34° C. for 0.5 h.
# 5. The treated experimental culture medium in each group was removed, and washed 2 times with 1× DPBS.
# 6. After washing, 500 μl of trypsin was added into each well for 5 min of photophobic reaction. After the reaction, the cell culture medium was added to terminate the reaction. After that, suspended cells and cell culture media in each well were collected into corresponding 1.5 ml micro-centrifuge tubes, and centrifuged for 5 min at 400×g to make cells in each centrifuge tube participated.
# 7. Supernatant in a centrifuge test tube for each group was removed, and the precipitate cells were washed with 1× DPBS once, and then centrifuged for 5 min at 400×g.
# The supernatant in a centrifuge test tube for each group was removed again, and 200 μl of 1× DPBS was added into the centrifuge test tube for each group to resuspend the cells so as to form a cell suspension.
# 8. The excitation light parameter of flow cytometry was set as 450-490 nm, the scattered light parameter of flow cytometry was set as 510-550, and then the fluorescence signal of DCFH-DA in each group was detected by flow cytometry. After entering the HFDPC cells, DCFH-DA was […] into DCFH (dichlorodihydrofluorescein) and then oxidized into DCF (dichlorofluorescein) capable of emitting green fluorescence by reactive oxygen species (ROS), the fluorescence intensity of the HFDPC cells treated by DCFH-DA can reflect the content of ROS in […], so as to obtain the proportion of highly expressed ROS cells in FDPC cells accounting for the number of original cells.
# The relative ROS generation amounts of all groups are calculated according to the following formula: ROS relative generation amount (%)=(green fluorescence signal in each group/green fluorescence signal in blank group G01)×100%.
# Since the experiment was repeated for three times, the measurement results of experiment that was repeated for three times were averaged as an average value, and then statistically significant differences between rest results of control group G02 and other groups were obtained by student's t-test statistical analysis. In the figures, “*” represents that compared with control group G02, p is less than 0.05, “**” represents that compared with control group G02, p is less than 0.01, and “***” represents that compared with control group G02, p is less than 0.001.
# Refer to FIG. 10. The cells in blank group G01 were neither treated with the cashew testa extract, nor stimulated by adding H2O2, and therefore the test results in blank group G01 represent the expression of cells under the condition of normal physiological metabolism, and the relative ROS generation amount of each group is as shown in FIG. 10. […]
# [2] = system: HFDPC cells; assay: Test for promoting hair follicle cell proliferation (EdU, flow cytometry); assay type: cell-based, human; details: 0.1 mM compound, 24 h; for relative hair follicle cell proliferation rate: blank group G01 = 100%
# Method: 1. Assay kit: cell proliferation assay kit (Click-iT™ Plus EdU Flow Cytometry Assay Kits-Alexa Fluor™ 488 picolyl azide, 50 tests), which is purchased from Invitrogen, with a product number C10632.
# 1. HFDPC cells were inoculated into a 6-well culture medium at the density of 1×10^5 cells/well, and cultured under the conditions of 5% CO2 and 37° C. until 80%-90% of cell fullness were achieved.
# 2. After culture for 24 h, the content of DNA in each group was measured by using cell proliferation assay kit. Therefore, cells in each group were treated according to test procedures provided by the cell proliferation assay kit, then the excitation light parameter of flow cytometer was set as 450-490 nm, and the scattered light parameter of flow cytometer was set as 510-550 nm, and then EdU (5-ethynyl-2′-deoxyuridine) fluorescent signal of each group was detected by flow cytometer.
# The proliferation rate of hair follicle cells in each group was based on the content of DNA in each group. The relative hair follicle cell proliferation rates of all groups are calculated according to the following formula: relative hair follicle cell proliferation rate (%)-(fluorescent signal of each group/fluorescent signal of blank group G01)×100%.
# The statistically significant difference between test results of blank group G01 and other groups was obtained by student's t-test statistical analysis. In the figures, “*” represents that compared with blank group G01, p is less than 0.05, “**” represents that compared with blank group G01, p is less than 0.01, and “***” represents that compared with blank group G01, p is less than 0.001.
SMILES,inhibition at 100 µM [1] [%],increase of relative hair follicle cell proliferation rate relative to blank group G01 [2],proliferation effect compared with control group G02 (20% fetal bovine serum) [2],relative hair follicle cell proliferation rate [2] [%]
O=C(/C=C/c1ccc(O)cc1)OC[C@H]1O[C@@H](Oc2cc(O)c3c(c2)OC(c2ccc(O)cc2)CC3=O)[C@H](O)[C@@H](O)[C@@H]1O (stereo partly drawn) [Naringenin 7-O-(6″-O-p-coumaryl)-β-D-glucoside],75.8,~25%,superior to that of control group G02,125
"Oc1cc(O)c2c(c1)O[C@H](c1cc(O)c(O)c(O)c1)[C@@H](O)C2 [gallocatechin, Gallocatechin]",90.8,,,93.5
"O=C(O)c1cc(O)c(O)c(O)c1 [gallic acid, Gallic acid]",80,,,83.7
"Oc1cc(O)cc(O)c1 [phloroglucinol, Phloroglucinol]",53.9,~27.9%,superior to that of control group G02,127.9
"O=C(/C=C/c1ccc(O)cc1)O[C@@H]1Cc2c(O)cc(O)cc2O[C@@H]1c1ccc(O)c(O)c1 [epicatechin coumarin ester, Epicatechin coumarin ester]",100,about 14.1%,,114.1
"O=C(O[C@@H]1Cc2c(O)cc(O)cc2O[C@@H]1c1ccc(O)c(O)c1)c1cc(O)c(O)c(O)c1 [epicatechin gallate, Epicatechin gallate]",96.9,,,89.9
"O=C(O)c1ccc(O)c(O)c1 [protocatechuic acid, Protocatechuic acid]",99.4,~9.6%,,109.6
